Reference: US11965039B2, “Compstatin analogues and their medical uses” (priority 2018, dated 2024)
Where two headings read alike, the source gives them in different places. Starred links: 1 amine or outer side, 2 acyl side, 3 side chain; linkers in the order of their positions; H or OH if unused. Positions of bridges follow the written chain, without caps; N, C: chain ends. Non-standard residues stand in square brackets, D forms with d. Residues, ends and D or L forms follow the SMILES beside them. Groups on a side chain read outwards from the residue. *: point of attachment. Trp(1-Me) = Cn1cc(C[C@H](N)C(=O)O)c2ccccc21; C18 diacid = O=C(O)CCCCCCCCCCCCCCCCC(=O)*; γGlu = O=C(O)[C@H](CCC(=O)[*:2])N[*:1]; 2Nal = N[C@@H](Cc1ccc2ccccc2c1)C(=O)O; Sar = CNCC(=O)O

How the values were obtained:
[1] = tested on: classical complement pathway; test: In vitro haemolysis assay (inhibition of classical complement pathway); format: cell-based, human; details: human serum, sensitized sheep red blood cells
Method in brief: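 Compound dilutions preincubated 15 min at room temperature with diluted human serum (titrated per batch for 70-90% maximal haemolysis), then antibody-sensitized sheep RBC (10^7/well) added for 30 min at 37 °C in Tris/casein buffer, pH 7.4. Stopped with EDTA; haemolysis read at 405 nm; IC50 by 4PL fit.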

[2] = Solubility test at 10 mg/mL (visual inspection and light scattering); format: physicochemical; details: for Solubility, Condition 1: Acetate pH 4; for Solubility, Condition 2: Acetate pH 5; for Solubility, Condition 3: Phosphate pH 6; for Solubility, Condition 4: Phosphate pH 7; for Solubility, Condition 5: Phosphate pH 7.5
[3] = Table 3, given as upper bounds, read-out: IC50, inhibition of hemolysis

## CC[C@H](C)[C@@H]1NC(=O)[C@@H](NC(=O)[C@H](Cc2ccccc2)NC(=O)[C@H](N)Cc2ccc(O)cc2)CSSC[C@@H](C(=O)N[C@H](C(=O)NCC(=O)N[C@@H](C)C(=O)N[C@@H](CCC(=O)O)C(=O)N[C@@H](CO)C(N)=O)[C@@H](C)O)NC(=O)[C@H](CCCNC(=N)N)NC(=O)[C@H](Cc2c[nH]cn2)NC(=O)[C@H](CCC(=O)O)NC(=O)CN(C)C(=O)[C@H](Cc2c[nH]c3ccccc23)NC(=O)[C@H](CC(=O)O)NC(=O)[C@H](CCC(N)=O)NC(=O)[C@H](Cc2cn(C)c3ccccc23)NC1=O [Compound 73, H-{d}YFC(1)I[1-Me-Trp]QDW[Sar]EHRC(1)TGAES-NH2] (H-[dY]FCI[Trp(1-Me)]QDW[Sar]EHRCTGAES-NH2; disulfide 3-13)
[1]; [3]
  IC50: < 0.1 µM
[2]
  Solubility, Condition 1: + (“+” denotes solubility at the given condition, as determined by UV absorbance being less than 0.1 AU at 340 nm and the sample being clear when manually inspected)
  Solubility, Condition 2: − (“−” denotes lack of solubility at the given condition, as UV absorbance at 340 nm exceeds 0.1 AU and/or it is visibly turbid or contains particles)
  Solubility, Condition 3: − (“−” denotes lack of solubility at the given condition, as UV absorbance at 340 nm exceeds 0.1 AU and/or it is visibly turbid or contains particles)
  Solubility, Condition 4: + (“+” denotes solubility at the given condition, as determined by UV absorbance being less than 0.1 AU at 340 nm and the sample being clear when manually inspected)
  Solubility, Condition 5: + (“+” denotes solubility at the given condition, as determined by UV absorbance being less than 0.1 AU at 340 nm and the sample being clear when manually inspected)

## CC[C@H](C)[C@@H]1NC(=O)[C@@H](NC(=O)[C@H](Cc2ccccc2)NC(=O)[C@H](C)NC(=O)[C@H](CO)NC(=O)CNC(=O)[C@H](CCC(=O)O)NC(C)=O)CSSC[C@@H](C(=O)N[C@H](C(=O)N[C@@H](CCC(=O)O)C(N)=O)[C@@H](C)O)NC(=O)[C@H](CCCNC(=N)N)NC(=O)[C@H](Cc2c[nH]cn2)NC(=O)[C@H](CCC(=O)O)NC(=O)CNC(=O)[C@H](Cc2c[nH]c3ccccc23)NC(=O)[C@H](CC(=O)O)NC(=O)[C@H](CCC(N)=O)NC(=O)[C@H](Cc2ccc3ccccc3c2)NC1=O [Compound 60] (Ac-EGSAFCI[2Nal]QDWGEHRCTE-NH2; disulfide 6-16)
[1]; [3]
  IC50: < 0.1 µM
[2]
  Solubility, Condition 1: − (“−” denotes lack of solubility at the given condition, as UV absorbance at 340 nm exceeds 0.1 AU and/or it is visibly turbid or contains particles)
  Solubility, Condition 2: − (“−” denotes lack of solubility at the given condition, as UV absorbance at 340 nm exceeds 0.1 AU and/or it is visibly turbid or contains particles)
  Solubility, Condition 3: + (“+” denotes solubility at the given condition, as determined by UV absorbance being less than 0.1 AU at 340 nm and the sample being clear when manually inspected)
  Solubility, Condition 4: + (“+” denotes solubility at the given condition, as determined by UV absorbance being less than 0.1 AU at 340 nm and the sample being clear when manually inspected)
  Solubility, Condition 5: + (“+” denotes solubility at the given condition, as determined by UV absorbance being less than 0.1 AU at 340 nm and the sample being clear when manually inspected)

## CC[C@H](C)[C@@H]1NC(=O)[C@@H](NC(=O)[C@H](Cc2ccc(O)cc2)NC(=O)[C@H](CCC(=O)O)NC(=O)[C@H](CO)NC(C)=O)CSSC[C@@H](C(=O)N(C)CC(=O)N[C@@H](CCC(=O)O)C(=O)NCC(=O)N[C@@H](CCCCN)C(=O)N[C@@H](CCCCNC(=O)CC[C@H](NC(=O)CNC(=O)CC[C@H](NC(=O)CCCCCCCCCCCCCCCCC(=O)O)C(=O)O)C(=O)O)C(N)=O)NC(=O)[C@H](CCCNC(=N)N)NC(=O)[C@H](Cc2c[nH]cn2)NC(=O)[C@H](CCC(=O)O)NC(=O)CNC(=O)[C@H](Cc2c[nH]c3ccccc23)NC(=O)[C@H](CC(=O)O)NC(=O)[C@H](CCC(N)=O)NC(=O)[C@H](Cc2cn(C)c3ccccc23)NC1=O [Compound 115] (Ac-SEYCI[Trp(1-Me)]QDWGEHRC[Sar]EGKK([γGlu-Gly-γGlu-C18 diacid])-NH2; disulfide 4-14)
[1]; [3]
  IC50: < 0.25 µM
[2]
  Solubility, Condition 1: − (“−” denotes lack of solubility at the given condition, as UV absorbance at 340 nm exceeds 0.1 AU and/or it is visibly turbid or contains particles)
  Solubility, Condition 2: − (“−” denotes lack of solubility at the given condition, as UV absorbance at 340 nm exceeds 0.1 AU and/or it is visibly turbid or contains particles)
  Solubility, Condition 3: + (“+” denotes solubility at the given condition, as determined by UV absorbance being less than 0.1 AU at 340 nm and the sample being clear when manually inspected)
  Solubility, Condition 4: + (“+” denotes solubility at the given condition, as determined by UV absorbance being less than 0.1 AU at 340 nm and the sample being clear when manually inspected)
  Solubility, Condition 5: + (“+” denotes solubility at the given condition, as determined by UV absorbance being less than 0.1 AU at 340 nm and the sample being clear when manually inspected)

## CC[C@H](C)[C@H](NC(=O)[C@H](C)NC(=O)[C@H](CO)NC(=O)[C@H](CO)NC(=O)[C@H](CCC(=O)O)NC(C)=O)C(=O)N[C@H]1CSSC[C@@H](C(=O)N[C@H](C(N)=O)[C@@H](C)O)NC(=O)[C@H](CCCNC(=N)N)NC(=O)[C@H](Cc2c[nH]cn2)NC(=O)[C@H](CCC(=O)O)NC(=O)CNC(=O)[C@H](Cc2c[nH]c3ccccc23)NC(=O)[C@H](CC(=O)O)NC(=O)[C@H](CCC(N)=O)NC(=O)[C@H](Cc2c[nH]c3ccccc23)NC(=O)[C@H]([C@@H](C)CC)NC1=O [Compound 3] (Ac-ESSAICIWQDWGEHRCT-NH2; disulfide 6-16)
[1]; [3]
  IC50: < 0.1 µM
[1]; Table 4, valine 3 vs isoleucine 3 pairs, read-out: CP hemolysis IC50
  IC50: 0.069 µM
[2]
  Solubility, Condition 1: + (“+” denotes solubility at the given condition, as determined by UV absorbance being less than 0.1 AU at 340 nm and the sample being clear when manually inspected)
  Solubility, Condition 2: − (“−” denotes lack of solubility at the given condition, as UV absorbance at 340 nm exceeds 0.1 AU and/or it is visibly turbid or contains particles)
  Solubility, Condition 3: − (“−” denotes lack of solubility at the given condition, as UV absorbance at 340 nm exceeds 0.1 AU and/or it is visibly turbid or contains particles)
  Solubility, Condition 4: + (“+” denotes solubility at the given condition, as determined by UV absorbance being less than 0.1 AU at 340 nm and the sample being clear when manually inspected)
  Solubility, Condition 5: + (“+” denotes solubility at the given condition, as determined by UV absorbance being less than 0.1 AU at 340 nm and the sample being clear when manually inspected)
